Assay results from paper PMC4620497 (Scientific Reports, 2015).

Tests used:
[1] = target: T1, SIK2 (Homo sapiens, UniProt Q9H0K1); test: KINOMEscan panel screen; assay type: binding; conditions: read-out: Percent Control(%)
T1 construct: purchased DiscoveRx KINOMEscan (Ambit Biosciences)

[2] = target: T2, TAK1 (Homo sapiens, UniProt O43318); test: KINOMEscan panel screen; assay type: binding; conditions: read-out: Percent Control(%)
T2 construct: purchased DiscoveRx KINOMEscan (Ambit Biosciences)

[3] = target: T3, EPHA8 (Homo sapiens, UniProt P29322); test: KINOMEscan panel screen; assay type: binding; conditions: read-out: Percent Control(%)
T3 construct: purchased DiscoveRx KINOMEscan (Ambit Biosciences)
T3 sequence (P29322 28-1005): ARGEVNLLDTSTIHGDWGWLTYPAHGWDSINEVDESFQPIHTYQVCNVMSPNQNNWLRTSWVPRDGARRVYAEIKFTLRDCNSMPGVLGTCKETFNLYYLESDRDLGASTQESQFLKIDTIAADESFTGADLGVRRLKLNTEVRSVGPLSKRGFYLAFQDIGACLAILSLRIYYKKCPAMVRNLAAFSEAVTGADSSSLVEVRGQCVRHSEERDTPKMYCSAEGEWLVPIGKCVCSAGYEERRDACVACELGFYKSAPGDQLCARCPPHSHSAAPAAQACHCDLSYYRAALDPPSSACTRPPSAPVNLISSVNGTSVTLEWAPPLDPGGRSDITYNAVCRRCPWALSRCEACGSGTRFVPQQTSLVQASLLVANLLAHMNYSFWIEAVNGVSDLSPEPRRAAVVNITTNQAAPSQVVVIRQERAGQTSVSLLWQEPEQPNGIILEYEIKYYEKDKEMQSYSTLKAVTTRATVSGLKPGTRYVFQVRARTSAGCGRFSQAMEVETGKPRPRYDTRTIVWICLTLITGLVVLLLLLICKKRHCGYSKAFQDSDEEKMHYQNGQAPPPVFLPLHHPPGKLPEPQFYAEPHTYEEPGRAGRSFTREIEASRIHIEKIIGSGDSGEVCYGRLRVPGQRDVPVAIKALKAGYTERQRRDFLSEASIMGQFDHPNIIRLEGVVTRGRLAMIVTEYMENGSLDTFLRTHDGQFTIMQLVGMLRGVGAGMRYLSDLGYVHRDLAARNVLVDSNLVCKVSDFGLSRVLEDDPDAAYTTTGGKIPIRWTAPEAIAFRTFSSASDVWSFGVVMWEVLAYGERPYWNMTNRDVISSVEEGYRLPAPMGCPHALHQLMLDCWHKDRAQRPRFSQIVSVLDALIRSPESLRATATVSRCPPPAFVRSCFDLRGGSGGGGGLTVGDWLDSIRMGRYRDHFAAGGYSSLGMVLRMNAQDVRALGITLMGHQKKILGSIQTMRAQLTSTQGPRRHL

[4] = target: T4, CSK (Homo sapiens, UniProt P41240); test: KINOMEscan panel screen; assay type: binding; conditions: read-out: Percent Control(%)
T4 construct: purchased DiscoveRx KINOMEscan (Ambit Biosciences)
T4 sequence (P41240 whole entry): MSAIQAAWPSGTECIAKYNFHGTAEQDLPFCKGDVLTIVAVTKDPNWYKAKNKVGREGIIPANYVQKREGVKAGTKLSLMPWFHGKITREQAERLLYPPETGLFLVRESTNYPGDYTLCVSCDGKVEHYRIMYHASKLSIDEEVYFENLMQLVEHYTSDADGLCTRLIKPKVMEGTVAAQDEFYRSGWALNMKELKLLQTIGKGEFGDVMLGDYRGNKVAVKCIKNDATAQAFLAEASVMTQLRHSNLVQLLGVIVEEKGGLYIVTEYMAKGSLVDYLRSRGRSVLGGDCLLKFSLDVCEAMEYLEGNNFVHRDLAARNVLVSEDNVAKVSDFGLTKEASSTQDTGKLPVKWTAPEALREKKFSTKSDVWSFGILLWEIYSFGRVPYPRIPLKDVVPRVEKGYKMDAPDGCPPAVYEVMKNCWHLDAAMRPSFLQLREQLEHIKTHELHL

[5] = target: T5, KIT(A829P) (Homo sapiens, UniProt P10721, A829P); test: KINOMEscan panel screen; assay type: binding; conditions: read-out: Percent Control(%)
T5 construct: purchased DiscoveRx KINOMEscan (Ambit Biosciences)
T5 sequence (P10721 546-976 A829P limits assumed): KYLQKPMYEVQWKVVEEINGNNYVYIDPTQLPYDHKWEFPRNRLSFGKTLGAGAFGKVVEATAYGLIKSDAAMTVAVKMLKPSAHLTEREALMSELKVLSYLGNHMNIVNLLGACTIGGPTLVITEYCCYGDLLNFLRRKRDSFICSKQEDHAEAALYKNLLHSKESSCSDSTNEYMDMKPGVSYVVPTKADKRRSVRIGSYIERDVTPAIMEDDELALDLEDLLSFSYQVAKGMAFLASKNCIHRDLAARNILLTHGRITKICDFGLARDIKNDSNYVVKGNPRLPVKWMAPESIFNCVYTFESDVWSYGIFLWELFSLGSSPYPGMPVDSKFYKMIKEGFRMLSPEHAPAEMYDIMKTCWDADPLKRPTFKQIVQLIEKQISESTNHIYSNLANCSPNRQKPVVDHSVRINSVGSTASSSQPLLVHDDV

[6] = target: T6, IGF1R (Homo sapiens, UniProt P08069); test: KINOMEscan panel screen; assay type: binding; conditions: read-out: Percent Control(%)
T6 construct: DNA tag (qPCR read-out); purchased Ambit Biosciences (KINOMEscan service)

[7] = target: T7, ABL1-phosphorylated (Homo sapiens, UniProt P00519); test: KINOMEscan panel screen; assay type: binding; conditions: read-out: Percent Control(%)
T7 construct: purchased DiscoveRx KINOMEscan (Ambit Biosciences)
T7 sequence (P00519 whole entry): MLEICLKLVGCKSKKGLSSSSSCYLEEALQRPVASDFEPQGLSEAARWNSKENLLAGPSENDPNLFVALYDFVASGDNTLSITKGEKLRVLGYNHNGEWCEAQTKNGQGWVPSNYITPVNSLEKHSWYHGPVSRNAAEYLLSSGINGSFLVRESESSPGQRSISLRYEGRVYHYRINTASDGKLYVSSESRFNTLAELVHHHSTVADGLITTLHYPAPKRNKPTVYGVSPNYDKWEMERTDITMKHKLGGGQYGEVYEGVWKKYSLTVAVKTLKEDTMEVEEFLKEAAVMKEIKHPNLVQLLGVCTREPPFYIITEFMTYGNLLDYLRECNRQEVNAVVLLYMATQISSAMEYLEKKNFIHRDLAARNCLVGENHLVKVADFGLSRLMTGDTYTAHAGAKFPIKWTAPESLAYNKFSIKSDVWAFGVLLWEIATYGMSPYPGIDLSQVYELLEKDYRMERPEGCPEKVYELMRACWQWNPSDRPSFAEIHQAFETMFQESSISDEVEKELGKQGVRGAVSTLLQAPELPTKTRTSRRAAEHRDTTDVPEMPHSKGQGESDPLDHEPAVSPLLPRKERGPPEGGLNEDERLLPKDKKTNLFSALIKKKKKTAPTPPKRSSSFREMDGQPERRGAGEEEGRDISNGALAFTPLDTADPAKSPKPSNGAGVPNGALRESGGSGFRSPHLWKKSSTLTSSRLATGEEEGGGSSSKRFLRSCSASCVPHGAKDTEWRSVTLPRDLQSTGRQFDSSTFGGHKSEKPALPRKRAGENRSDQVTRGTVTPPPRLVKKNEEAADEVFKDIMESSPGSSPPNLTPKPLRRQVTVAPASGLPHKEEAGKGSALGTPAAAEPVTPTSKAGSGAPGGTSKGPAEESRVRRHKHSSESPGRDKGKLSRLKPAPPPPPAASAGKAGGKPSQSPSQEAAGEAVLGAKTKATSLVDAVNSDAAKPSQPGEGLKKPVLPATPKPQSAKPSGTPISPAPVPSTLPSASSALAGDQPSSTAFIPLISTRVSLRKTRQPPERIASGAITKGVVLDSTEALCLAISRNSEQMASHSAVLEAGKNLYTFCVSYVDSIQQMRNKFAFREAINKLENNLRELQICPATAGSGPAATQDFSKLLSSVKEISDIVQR

[8] = target: T8, STK36 (Homo sapiens, UniProt Q9NRP7); test: KINOMEscan panel screen; assay type: binding; conditions: read-out: Percent Control(%)
T8 construct: purchased DiscoveRx KINOMEscan (Ambit Biosciences)
T8 sequence (Q9NRP7 whole entry): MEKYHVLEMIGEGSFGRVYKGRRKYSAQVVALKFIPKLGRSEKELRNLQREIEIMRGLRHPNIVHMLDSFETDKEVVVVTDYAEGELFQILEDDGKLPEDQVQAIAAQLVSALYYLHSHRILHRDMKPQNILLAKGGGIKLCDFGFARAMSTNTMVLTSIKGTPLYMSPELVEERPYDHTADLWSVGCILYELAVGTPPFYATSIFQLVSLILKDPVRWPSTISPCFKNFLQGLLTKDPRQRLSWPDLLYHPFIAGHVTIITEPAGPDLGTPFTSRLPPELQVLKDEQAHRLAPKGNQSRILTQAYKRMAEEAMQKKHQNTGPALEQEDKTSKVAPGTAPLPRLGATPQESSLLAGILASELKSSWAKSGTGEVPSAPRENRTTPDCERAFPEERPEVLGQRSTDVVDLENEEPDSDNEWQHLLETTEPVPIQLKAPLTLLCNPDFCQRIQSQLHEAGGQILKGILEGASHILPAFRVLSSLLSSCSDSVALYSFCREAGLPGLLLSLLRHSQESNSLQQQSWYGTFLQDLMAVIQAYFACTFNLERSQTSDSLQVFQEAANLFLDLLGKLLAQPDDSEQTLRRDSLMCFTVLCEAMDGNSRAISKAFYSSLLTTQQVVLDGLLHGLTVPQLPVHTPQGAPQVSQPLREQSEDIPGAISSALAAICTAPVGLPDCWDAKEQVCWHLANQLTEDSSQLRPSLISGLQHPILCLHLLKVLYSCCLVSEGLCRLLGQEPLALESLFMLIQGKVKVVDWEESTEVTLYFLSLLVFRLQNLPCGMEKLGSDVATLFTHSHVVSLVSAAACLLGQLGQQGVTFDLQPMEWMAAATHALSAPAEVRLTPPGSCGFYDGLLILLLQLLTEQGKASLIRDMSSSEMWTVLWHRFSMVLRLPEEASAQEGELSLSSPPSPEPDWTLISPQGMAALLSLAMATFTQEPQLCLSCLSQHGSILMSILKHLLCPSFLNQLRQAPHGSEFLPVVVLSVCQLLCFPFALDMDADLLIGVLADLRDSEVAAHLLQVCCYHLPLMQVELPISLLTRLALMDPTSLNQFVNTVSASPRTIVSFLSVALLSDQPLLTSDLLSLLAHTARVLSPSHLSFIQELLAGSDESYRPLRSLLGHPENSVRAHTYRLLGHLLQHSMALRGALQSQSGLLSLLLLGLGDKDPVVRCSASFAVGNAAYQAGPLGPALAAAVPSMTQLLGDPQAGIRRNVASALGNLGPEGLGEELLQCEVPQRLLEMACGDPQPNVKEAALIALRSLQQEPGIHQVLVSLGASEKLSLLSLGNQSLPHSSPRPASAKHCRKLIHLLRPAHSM

[9] = target: T9, ACVRL1 (Homo sapiens, UniProt P37023); test: KINOMEscan panel screen; assay type: binding; conditions: read-out: Percent Control(%)
T9 construct: purchased DiscoveRx KINOMEscan (Ambit Biosciences)

[10] = target: T10, DAPK1 (Homo sapiens, UniProt P53355); test: KINOMEscan panel screen; assay type: binding; conditions: read-out: Percent Control(%)
T10 construct: purchased DiscoveRx KINOMEscan (Ambit Biosciences)

[11] = test system: phosphorylation of FLT3, STAT5 and Erk1/2 in MV4-11 cells; test: Western blot of FLT3 signaling in MV4-11 cells; assay type: cell-based, human; conditions: 1 h treatment
Method: Western blot analysis was performed as previously described[43]. […] Quantitative analysis of the protein level was performed with NIH image analysis software, ImageJ (normalized relative to the vehicle control).
The phosphorylation levels of FLT3 and downstream signal proteins were detected used the same method as that in panel a.

[12] = target: T11, AURKA (Homo sapiens, UniProt O14965); test: KINOMEscan panel screen; assay type: binding; conditions: read-out: Percent Control(%)
T11 construct: purchased DiscoveRx KINOMEscan (Ambit Biosciences)
T11 sequence (O14965 whole entry): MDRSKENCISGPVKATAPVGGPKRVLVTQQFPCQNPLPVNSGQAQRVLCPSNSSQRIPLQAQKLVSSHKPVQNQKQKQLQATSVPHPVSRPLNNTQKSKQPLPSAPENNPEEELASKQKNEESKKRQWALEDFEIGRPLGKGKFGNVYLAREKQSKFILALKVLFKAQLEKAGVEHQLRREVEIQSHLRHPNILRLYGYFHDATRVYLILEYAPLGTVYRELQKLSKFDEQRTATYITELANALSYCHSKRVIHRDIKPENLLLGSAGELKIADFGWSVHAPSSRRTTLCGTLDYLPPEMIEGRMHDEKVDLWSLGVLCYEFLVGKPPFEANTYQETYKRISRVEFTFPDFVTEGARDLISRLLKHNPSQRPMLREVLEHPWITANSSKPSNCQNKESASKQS

[13] = target: T12, PIM3 (Homo sapiens, UniProt Q86V86); test: KINOMEscan panel screen; assay type: binding; conditions: read-out: Percent Control(%)
T12 construct: purchased DiscoveRx KINOMEscan (Ambit Biosciences)

[14] = target: T13, PRKD2 (Homo sapiens, UniProt Q9BZL6); test: KINOMEscan panel screen; assay type: binding; conditions: read-out: Percent Control(%)
T13 construct: purchased DiscoveRx KINOMEscan (Ambit Biosciences)

[15] = target: T14, PIP5K2B (Homo sapiens, UniProt P78356); test: KINOMEscan panel screen; assay type: binding; conditions: read-out: Percent Control(%)
T14 construct: purchased DiscoveRx KINOMEscan (Ambit Biosciences)

[16] = target: T15, STK16 (Homo sapiens, UniProt O75716); test: KINOMEscan panel screen; assay type: binding; conditions: read-out: Percent Control(%)
T15 construct: purchased DiscoveRx KINOMEscan (Ambit Biosciences)
T15 sequence (O75716 whole entry): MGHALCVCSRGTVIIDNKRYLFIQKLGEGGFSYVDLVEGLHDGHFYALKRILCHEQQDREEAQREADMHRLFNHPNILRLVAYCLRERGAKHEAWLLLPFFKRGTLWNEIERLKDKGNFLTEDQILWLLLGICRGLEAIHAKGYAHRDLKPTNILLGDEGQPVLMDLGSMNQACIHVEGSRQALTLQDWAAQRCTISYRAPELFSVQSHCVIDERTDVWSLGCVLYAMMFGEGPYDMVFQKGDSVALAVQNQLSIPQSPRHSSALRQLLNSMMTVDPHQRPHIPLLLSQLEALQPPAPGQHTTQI

[17] = target: T16, YES (Homo sapiens, UniProt P07947); test: KINOMEscan panel screen; assay type: binding; conditions: read-out: Percent Control(%)
T16 construct: purchased DiscoveRx KINOMEscan (Ambit Biosciences)

## CC(C)(C)c1cc(NC(=O)Nc2ccc(Oc3ncnc4[nH]ncc34)c(F)c2)no1 [SKLB-677, 1-(4-(1H-pyrazolo[3,4-d]pyrimidin-4-yloxy)-3-fluorophenyl)-3-(5-tert-butylisoxazol-3-yl)urea]
[1]
  remaining binding at 10 µM: 69%
[2]
  remaining binding at 10 µM: 100%
[3]
  remaining binding at 10 µM: 0.1%
[4]
  remaining binding at 10 µM: 76%
[5]
  remaining binding at 10 µM: 15%
[6]
  remaining binding at 10 µM: 70%
[7]
  remaining binding at 10 µM: 3.2%
[8]
  remaining binding at 10 µM: 97%
[9]
  remaining binding at 10 µM: 91%
[10]
  remaining binding at 10 µM: 74%
[11]
  concentration at which activation of STAT5 and Erk1/2 was efficiently inhibited: higher than 1 nM
[11]; Homo sapiens, read-out: IC50, reduction in the phosphorylation level of FLT3
  IC50: ~0.1 nM
[12]
  remaining binding at 10 µM: 35%
[13]
  remaining binding at 10 µM: 40%
[14]
  remaining binding at 10 µM: 28%
[15]
  remaining binding at 10 µM: 98%
[16]
  remaining binding at 10 µM: 36%
[17]
  remaining binding at 10 µM: 27%
